In patent US11873291B2, “Quinoline cGAS antagonist compounds” (ImmuneSensor Therapeutics, Inc., priority 2020, dated 2024):
Like-named read-outs stand apart in the source and are kept apart here.

Molecular target: T1, recombinant human cGAS (aa147-522) (Homo sapiens, UniProt Q8N884)
T1 construct: recombinant human cGAS (aa147-522); His6-SUMO (cleaved yes); made in house; host or cells: E. coli BL21/pLys
Assay: In vitro inhibition assay of cGAS activity (ATP consumption, KinaseGlo Max)
Type: biochemical
Summary of the method: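 IC50 came from plotting % ATP consumption against log compound concentration, with leftover ATP detected by KinaseGlo Max chemiluminescence. Reactions ran 20 min at 37 °C with 1.5 μg/mL human cGAS (aa147-522), 6.6 μM ATP, 0.1 mM GTP and 0.01 mg/mL DNA at pH 7.5.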

[1] = Table 2, read-out: cGAS Inhibition Results IC50
[2] = Table 3, read-out: cGAS Inhibition Results IC50

T1 sequence (Q8N884 147-522): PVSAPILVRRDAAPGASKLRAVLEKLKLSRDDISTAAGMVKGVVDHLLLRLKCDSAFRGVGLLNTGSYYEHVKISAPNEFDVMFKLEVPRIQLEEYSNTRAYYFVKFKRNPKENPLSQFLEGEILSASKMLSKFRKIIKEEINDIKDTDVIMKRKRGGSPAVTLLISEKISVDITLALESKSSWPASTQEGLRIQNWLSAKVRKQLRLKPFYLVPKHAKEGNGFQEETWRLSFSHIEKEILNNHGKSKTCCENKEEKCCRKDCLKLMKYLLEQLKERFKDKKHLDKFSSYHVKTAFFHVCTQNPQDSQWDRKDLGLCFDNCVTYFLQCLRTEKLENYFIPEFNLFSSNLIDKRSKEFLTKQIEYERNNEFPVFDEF

Row | IC50 [1] [nM] | IC50 [2] [nM] | Compound | further results
1 | < 2000 |  | OCCN(CCN1CCOCC1)c1cc(-c2cn[nH]c2)c2ccc(Cl)c(Cl)c2n1 [I-218] | 
2 |  | < 2000 | CN(CCC(=O)O)C(=O)C[C@@H]1CCCN1c1cc(-n2ccnc2)c2ccc(Cl)c(Cl)c2n1 [I-525] | 
3 | 2000 to 30000 |  | COC(CN(C)c1cc(-n2ccnc2)c2ccc(Cl)c(Cl)c2n1)OC [I-364] | 
4 | > 30000 |  | NC1CCCN(c2cc(-n3ccnc3)c3ccc(Cl)cc3n2)C1 (stereo not drawn) [I-108, 1-(7-chloro-4-(1H-imidazol-1-yl)quinolin-2-yl)piperidin-3-amine] | 
5 |  | < 2000 | CN(CCNS(=O)(=O)CCC(=O)O)c1cc(-n2ccnc2)c2ccc(Cl)c(Cl)c2n1 [I-617] | 
6 |  |  | CCOP(=O)(O)CNc1cc(-c2cn[nH]c2)c2ccc(Cl)c(Cl)c2n1 [I-253, Ethyl hydrogen (7,8-dichloro-4-(1H-pyrazol-4-yl)quinolin-2-ylamino)methylphosphonate] | IC50 (cGAS Inhibition Results IC50, Table 2): < 2000 nM
7 | 2000 to 30000 |  | Cc1cc(-n2ccnc2)c2ccc(Cl)c(Cl)c2n1 [I-405, 7,8-dichloro-4-(1H-imidazol-1-yl)-2-methylquinoline] | 
8 | < 2000 |  | CCOc1ccc(-c2cc(-n3ccnc3)c3ccc(Cl)cc3n2)cc1C(=O)O [I-19, 5-(7-chloro-4-(1H-imidazol-1-yl)quinolin-2-yl)-2-ethoxybenzoic acid] | 
9 | < 2000 |  | COCCN(C)c1cc(-n2ccnc2)c2ccc(Cl)c(Cl)c2n1 [I-244] | 
10 | 2000 to 30000 |  | Clc1ccc2c(-n3ccnc3)cc(-c3ccc4nn[nH]c4c3)nc2c1 [I-35] | 
11 | < 2000 |  | O=[PH](O)OCC1CCCN(c2cc(-n3ccnc3)c3ccc(Cl)c(Cl)c3n2)C1 (stereo not drawn) [I-110] | 
12 | 2000 to 30000 |  | O=C(O)CN(Cc1ccncc1)c1cc(-n2ccnc2)c2ccc(Cl)c(Cl)c2n1 [I-176] | 
13 | 2000 to 30000 |  | Cc1cc(NCC(=O)O)c2ccc(Cl)c(Cl)c2n1 [I-293] | 
14 |  | < 2000 | O=C(O)C1CCCCN1C(=O)C[C@@H]1CCCN1c1cc(-n2ccnc2)c2ccc(Cl)c(Cl)c2n1 (stereo partly drawn) [I-533] | 
15 |  | < 2000 | O=C(O)C12CC(Nc3cc(-n4ccnc4)c4ccc(Cl)c(Cl)c4n3)(C1)C2 [I-513] | 
16 | > 30000 |  | CC(C)c1ccc2c(-c3cn[nH]c3)cc(NCCS(N)(=O)=O)nc2c1 [I-269] | 
17 | < 2000 |  | NC(=O)C1CN(c2cc(-c3cn[nH]c3)c3ccc(Cl)c(Cl)c3n2)CCO1 (stereo not drawn) [I-371] | 
18 |  | 2000 to 30000 | O=C(O)CCOC[C@H]1CCCCN1c1cc(-n2ccnc2)c2ccc(Cl)c(Cl)c2n1 [I-790] | 
19 | < 2000 |  | CS(=O)(=O)N[C@@H]1C[C@@H](C(=O)O)N(c2cc(-n3ccnc3)c3ccc(Cl)c(Cl)c3n2)C1 [I-351] | 
20 |  | 2000 to 30000 | FC(F)(F)[C@@H]1CCCN1c1cc(-n2ccnc2)c2ccc(Cl)c(Cl)c2n1 [I-496] | 
21 | < 2000 |  | O=C(O)[C@H]1CCCN1c1cc(-n2ccnc2)c2ccc(Cl)c(Cl)c2n1 [I-374] | 
22 | 2000 to 30000 |  | Clc1ccc2c(-n3ccnc3)cc(OCc3ccccc3)nc2c1 [I-277, 2-(benzyloxy)-7-chloro-4-(1H-imidazol-1-yl)quinoline] | 
23 | 2000 to 30000 |  | NC(=O)NC1CCCN(c2cc(-n3ccnc3)c3ccc(Cl)cc3n2)C1 (stereo not drawn) [I-104, 1-(1-(7-chloro-4-(1H-imidazol-1-yl)quinolin-2-yl)piperidin-3-yl)urea] | 
24 | < 2000 |  | O=C(O)CN(CC(=O)O)c1cc(-n2ccnc2)c2ccc(Cl)c(Cl)c2n1 [I-174] | 

Row | IC50 [1] [nM] | IC50 [2] [nM] | Compound | further results
25 | > 30000 |  | Clc1ccc2c(-n3ccnc3)cc(OCCCN3CCOCC3)nc2c1 [I-284] | 
26 |  | < 2000 | CN(CCS(=O)(=O)NCCC(=O)O)c1cc(-n2ccnc2)c2ccc(Cl)c(Cl)c2n1 [I-630] | 
27 | > 30000 |  | O=C1CN(c2cc(-c3cn[nH]c3)nc3c(Cl)c(Cl)ccc23)CCN1 [I-299] | 
28 | 2000 to 30000 |  | Cc1ccc(-c2cc(-n3ccnc3)c3ccc(Br)cc3n2)cc1 [I-385] | 
29 |  | < 2000 | O=C(O)C1CN(C(=O)[C@@H]2CCCN2c2cc(-n3ccnc3)c3ccc(Cl)c(Cl)c3n2)CCO1 (stereo partly drawn) [I-549] | 
30 | 2000 to 30000 |  | CCN(CCN1CCOCC1)c1cc(-c2cn[nH]c2)c2ccc(Cl)c(Cl)c2n1 [I-212] | 
31 | > 30000 |  | O=C(O)Cc1ccccc1-c1cc(-n2ccnc2)c2ccc(Cl)cc2n1 [I-14] | 
32 | < 2000 |  | O=C(O)CCN(CC(=O)O)c1cc(-n2ccnc2)c2ccc(Cl)c(Cl)c2n1 [I-175] | 
33 |  | < 2000 | CO[C@H]1CCN(c2cc(-n3ccnc3)c3ccc(Cl)c(Cl)c3n2)[C@@H]1C(=O)O [I-560] | 
34 |  | < 2000 | O=C(O)C#CC[C@@H]1CCCN1c1cc(-n2ccnc2)c2ccc(Cl)c(Cl)c2n1 [I-819, (S)-4-(1-(7,8-dichloro-4-(1H-imidazol-1-yl)quinolin-2-yl)pyrrolidin-2-yl)but-2-ynoic acid] | 
35 |  | 2000 to 30000 | COC(=O)[C@@H]1[C@@H](OC)CCN1c1cc(-n2ccnc2)c2ccc(Cl)c(Cl)c2n1 [I-646, methyl (2S,3S)-1-(7,8-dichloro-4-(1H-imidazol-1-yl)quinolin-2-yl)-3-methoxypyrrolidine-2-carboxylate] | 
36 |  | > 30000 | CCOc1c(Cl)ccc2c(-n3ccnc3)cc(N3CCC[C@H]3COCCC(=O)O)nc12 [I-861] | 
37 | > 30000 |  | NS(=O)(=O)CCNc1cc(Cl)c2ccc(Cl)c(Cl)c2n1 [I-295] | 
38 | 2000 to 30000 |  | Clc1ccc2c(-c3cn[nH]c3)cc(-c3ccccc3)nc2c1 [I-67] | 
39 | 2000 to 30000 |  | O=C(O)c1cccc(Oc2cc(-n3ccnc3)c3ccc(Cl)cc3n2)c1 [I-282] | 
40 | 2000 to 30000 |  | O=C(CO)NC1CCCN(c2cc(-n3ccnc3)c3ccc(Cl)cc3n2)C1 (stereo not drawn) [I-106, N-(1-(7-chloro-4-(1H-imidazol-1-yl)quinolin-2-yl)piperidin-3-yl)-2-hydroxyacetamide] | 
41 |  | > 30000 | COC(=O)c1cccc(S(=O)(=O)NCCN(C)c2cc(-n3ccnc3)c3ccc(Cl)c(Cl)c3n2)c1 [I-609] | 
42 | > 30000 |  | O=C(O)C1CCCCC1Nc1cc(-n2ccnc2)c2ccc(Cl)cc2n1 (stereo not drawn) [I-333] | 
43 |  | 2000 to 30000 | COC(=O)c1cccn1-c1cc(-n2ccnc2)c2ccc(Cl)c(Cl)c2n1 [I-458] | 
44 |  | < 2000 | CN(CCN(Cc1cccc(C(=O)O)c1)S(C)(=O)=O)c1cc(-n2ccnc2)c2ccc(Cl)c(Cl)c2n1 [I-636, 3-((N-(2-((7,8-dichloro-4-(1H-imidazol-1-yl)quinolin-2-yl)(methyl)amino)ethyl)methylsulfonamido)methyl)benzoic acid] | 
45 |  | < 2000 | O=C(C[C@@H]1CCCN1c1cc(-n2ccnc2)c2ccc(Cl)c(Cl)c2n1)NS(=O)(=O)C(F)F [I-540] | 
46 | < 2000 |  | O=C(O)CNC(=O)[C@@H]1CCCN1c1cc(-n2ccnc2)c2ccc(Cl)c(Cl)c2n1 [I-323] | 
47 | < 2000 |  | O=P(O)(O)OCC1CCCN(c2cc(-n3ccnc3)c3ccc(Cl)c(Cl)c3n2)C1 (stereo not drawn) [I-113, (1-(7,8-dichloro-4-(1H-imidazol-1-yl)quinolin-2-yl)piperidin-3-yl)methyl dihydrogen phosphate] | 
48 | > 30000 |  | O=C(O)c1ccccc1Oc1cc(-n2ccnc2)c2ccc(Cl)cc2n1 [I-283] | 

Row | IC50 [1] [nM] | IC50 [2] [nM] | Compound | further results
49 |  | 2000 to 30000 | CN(CCCOc1ccc(Cl)cc1C(=O)O)c1cc(-n2ccnc2)c2ccc(Cl)c(Cl)c2n1 [I-847] | 
50 | 2000 to 30000 |  | COc1c(C(=O)O)cccc1-c1cc(-n2ccnc2)c2ccc(Cl)c(Cl)c2n1 [I-45] | 
51 | > 30000 |  | NS(=O)(=O)CCNc1cc(-c2cn[nH]c2)c2c(Cl)c(Cl)ccc2n1 [I-261] | 
52 |  | 2000 to 30000 | CN(CCNC(=O)CCO)c1cc(-n2ccnc2)c2ccc(Cl)c(Cl)c2n1 [I-614] | 
53 | 2000 to 30000 |  | CCNC(=O)[C@@H]1CCCN1c1cc(-n2ccnc2)c2ccc(Cl)c(Cl)c2n1 [I-451] | 
54 | 2000 to 30000 |  | OCCC1CCCN(c2cc(-c3cn[nH]c3)c3ccc(Cl)c(Cl)c3n2)C1 (stereo not drawn) [I-375] | 
55 | < 2000 |  | CN(CCO)c1cc(-n2ccnc2)c2ccc(Cl)c(Cl)c2n1 [I-238] | 
56 | > 30000 |  | Cn1cc(S(=O)(=O)NC2CCCN(c3cc(-n4ccnc4)c4ccc(Cl)cc4n3)C2)cn1 (stereo not drawn) [I-109] | 
57 | 2000 to 30000 |  | O=C1NC(=O)/C(=C\CCc2cc(-c3cn[nH]c3)c3ccc(Cl)c(Cl)c3n2)S1 [I-274, (E)-5-(3-(7,8-Dichloro-4-(1H-pyrazol-4-yl)quinolin-2-yl)propylidene)thiazolidine-2,4-dione] | 
58 |  | 2000 to 30000 | COC(=O)[C@@H]1CC[C@H](C)N1c1cc(-n2ccnc2)c2ccc(Cl)c(Cl)c2n1 [I-574] | 
59 | > 30000 |  | O=C(O)CNc1cc(Cl)nc2c(Cl)c(Cl)ccc12 [I-294] | 
60 | < 2000 |  | O=C(O)[C@@H]1C[C@@H](F)CN1c1cc(-c2cn[nH]c2)c2ccc(Cl)c(Cl)c2n1 [I-430] | 
61 |  | > 30000 | Cc1cn(-c2cc(N3CCC[C@H]3COCCC(=O)O)nc3c(Cl)c(Cl)ccc23)cn1 [I-825, (S)-3-((1-(7,8-dichloro-4-(4-methyl-1H-imidazol-1-yl)quinolin-2-yl)pyrrolidin-2-yl)methoxy)propanoic acid] | 
62 | > 30000 |  | Cc1cc(-c2ccn[nH]2)c2ccc(Cl)c(Cl)c2n1 [I-407] | 
63 | < 2000 |  | CN(CCC(=O)NCC(N)=O)c1cc(-c2cn[nH]c2)c2ccc(Cl)c(Cl)c2n1 [I-195] | 
64 |  | < 2000 | O=C(O)[C@@H]1C[C@H](C(F)(F)F)CN1c1cc(-n2ccnc2)c2ccc(Cl)c(Cl)c2n1 [I-508] | 
65 |  | > 30000 | O=C(O)CCOC[C@@H]1CCCN1c1ccc2ccc(Cl)c(Cl)c2n1 [I-827] | 
66 | > 30000 |  | Clc1ccc2c(Cl)cc(-c3cn[nH]c3)nc2c1Cl [I-404, 4,7,8-trichloro-2-(1H-pyrazol-4-yl)quinoline] | 
67 | 2000 to 30000 |  | O=S1(=O)CCN(c2cc(-n3ccnc3)c3ccc(Cl)c(Cl)c3n2)CC1 [I-87] | 
68 | < 2000 |  | CN(CCCO)c1cc(-c2cn[nH]c2)c2ccc(Cl)c(Cl)c2n1 [I-248] | 
69 | 2000 to 30000 |  | O=C(O)CC1CCN(c2cc(-n3ccnc3)c3ccc(Cl)cc3n2)C1 (stereo not drawn) [I-446] | 
70 | < 2000 |  | C[C@@]1(CO)CCCN1c1cc(-n2ccnc2)c2ccc(Cl)c(Cl)c2n1 [I-143] | 
71 | > 30000 |  | CN(CCNS(=O)(=O)c1ccccc1C(F)(F)F)c1cc(-n2ccnc2)c2ccc(Cl)cc2n1 [I-228] | 
72 |  | < 2000 | CO[C@@H]1CCN(c2cc(-n3ccnc3)c3ccc(Cl)c(Cl)c3n2)[C@@H]1C(=O)O [I-559] | 
